Experimental data taken from paper PMC3071989 (Clinical cancer research : an official journal of the …, 2010).

Assays:
[1] = Docetaxel plasma pharmacokinetics with and without tariquidar; format: in vivo, human; conditions: docetaxel 40 mg/m2, tariquidar 150 mg
[2] = patients who receive weekly docetaxel; cited from earlier work
Pgp [3] = target: T1, Pgp (Homo sapiens, UniProt P08183); assay: Rhodamine 123 efflux from CD56+ mononuclear cells of patients; format: cell-based
Pgp [4] = target: T1, Pgp; assay: 99mTc-sestamibi scanning before and after tariquidar; format: in vivo; conditions: after tariquidar 150 mg vs baseline
MRP1 = conditions: cited from earlier work
ABCG2 = conditions: compared with Pgp; cited from earlier work

T1 sequence (P08183 whole entry): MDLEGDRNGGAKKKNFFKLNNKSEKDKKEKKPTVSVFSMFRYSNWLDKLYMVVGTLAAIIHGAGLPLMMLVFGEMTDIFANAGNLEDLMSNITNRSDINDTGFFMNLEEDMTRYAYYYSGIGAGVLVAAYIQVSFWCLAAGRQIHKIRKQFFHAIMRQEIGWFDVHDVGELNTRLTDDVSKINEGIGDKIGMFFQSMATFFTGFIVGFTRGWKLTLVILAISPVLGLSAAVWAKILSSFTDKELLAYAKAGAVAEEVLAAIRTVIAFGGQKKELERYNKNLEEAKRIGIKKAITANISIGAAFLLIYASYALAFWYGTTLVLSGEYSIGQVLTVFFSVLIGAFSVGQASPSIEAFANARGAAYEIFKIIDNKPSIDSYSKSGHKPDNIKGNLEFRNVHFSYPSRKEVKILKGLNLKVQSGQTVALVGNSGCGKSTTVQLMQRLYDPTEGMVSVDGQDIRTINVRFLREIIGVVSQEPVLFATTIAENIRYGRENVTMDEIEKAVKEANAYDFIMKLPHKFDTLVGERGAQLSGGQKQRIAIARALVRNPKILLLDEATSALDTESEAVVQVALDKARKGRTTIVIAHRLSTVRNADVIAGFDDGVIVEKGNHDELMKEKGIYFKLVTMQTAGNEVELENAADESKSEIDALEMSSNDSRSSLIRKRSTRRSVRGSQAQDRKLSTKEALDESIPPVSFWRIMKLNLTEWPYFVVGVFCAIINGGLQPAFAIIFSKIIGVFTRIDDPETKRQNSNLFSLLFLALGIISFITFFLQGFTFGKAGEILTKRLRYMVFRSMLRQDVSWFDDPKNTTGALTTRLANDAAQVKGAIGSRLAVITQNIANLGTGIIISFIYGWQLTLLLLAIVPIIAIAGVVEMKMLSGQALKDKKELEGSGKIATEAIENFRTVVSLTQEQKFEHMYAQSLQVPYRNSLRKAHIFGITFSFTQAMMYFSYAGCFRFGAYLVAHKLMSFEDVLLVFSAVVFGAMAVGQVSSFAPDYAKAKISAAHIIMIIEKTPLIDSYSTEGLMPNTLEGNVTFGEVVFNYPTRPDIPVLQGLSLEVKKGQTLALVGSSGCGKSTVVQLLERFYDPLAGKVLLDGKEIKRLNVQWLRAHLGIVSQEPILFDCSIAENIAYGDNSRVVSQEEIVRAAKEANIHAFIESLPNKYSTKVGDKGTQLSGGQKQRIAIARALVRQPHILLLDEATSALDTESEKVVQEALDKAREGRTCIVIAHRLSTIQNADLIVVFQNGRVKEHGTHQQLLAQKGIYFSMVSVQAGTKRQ

## CC(=O)O[C@@]12CO[C@@H]1C[C@H](O)[C@@]1(C)C(=O)[C@H](O)C3=C(C)[C@@H](OC(=O)[C@H](O)[C@@H](NC(=O)OC(C)(C)C)c4ccccc4)C[C@@](O)([C@@H](OC(=O)c4ccccc4)[C@H]21)C3(C)C [docetaxel]
[1]; AUC0-24 and Cmax
  docetaxel disposition, pairwise comparison with and without tariquidar: no significant difference
[1]; 31 patients, plasma
  geometric mean ratio of docetaxel AUC0-24 (with tariquidar/without tariquidar): 1.07 (95% CI: 0.922-1.25)
  geometric mean ratio of docetaxel Cmax (with tariquidar/without tariquidar): 0.907 (95% CI: 0.697-1.18)
[2]
  epiphora secondary to canalicular stenosis, incidence: 33-50%

## COc1cc2c(cc1OC)CN(CCc1ccc(NC(=O)c3cc(OC)c(OC)cc3NC(=O)c3cnc4ccccc4c3)cc1)CC2 [tariquidar]
Pgp [3]; 24 h after start of tariquidar 150 mg IV infusion, 41 patients
  rhodamine efflux from CD56+ cells compared to Pre levels: significantly decreased
Pgp [3]; tariquidar 150 mg IV
  inhibition of Pgp in circulating mononuclear cells: complete inhibition
Pgp [4]; P<0.001
  change in sestamibi AUC, liver: statistically significant change
  change in sestamibi AUC, visualized tumor tissue: statistically significant change
Pgp [4]; two-tailed Student's t-test
  change in sestamibi AUC0-3, cardiac tissue: No statistically significant increase
  change in sestamibi AUC0-3, lung tissue: No statistically significant increase
MRP1
  inhibition of MRP1: does not inhibit
ABCG2
  inhibition of ABCG2-mediated resistance in vitro: higher concentrations are required to inhibit ABCG2

## C/C=C/C[C@@H](C)C(=O)[C@H]1C(=O)N[C@@H](C(C)C)C(=O)N(C)CC(=O)N(C)[C@@H](CC(C)C)C(=O)N[C@@H](C(C)C)C(=O)N(C)[C@@H](CC(C)C)C(=O)N[C@@H](C)C(=O)N[C@H](C)C(=O)N(C)[C@@H](CC(C)C)C(=O)N(C)[C@@H](CC(C)C)C(=O)N(C)[C@@H](C(C)C)C(=O)N1C [valspodar]
Pgp [3]; exogenously added valspodar 3 μg/ml
  inhibition of Pgp-mediated rhodamine transport: fully inhibits
